pIC50: −log10 of the molar value. Structures can show the parent of a compound that is named as a salt.

The target of the test is T1, Human 5-HT4 receptor (5-HT4b) (Homo sapiens, UniProt Q13639).
T1 construct: expressed in transfected cells; membrane preparation
T1 sequence (Q13639 whole entry): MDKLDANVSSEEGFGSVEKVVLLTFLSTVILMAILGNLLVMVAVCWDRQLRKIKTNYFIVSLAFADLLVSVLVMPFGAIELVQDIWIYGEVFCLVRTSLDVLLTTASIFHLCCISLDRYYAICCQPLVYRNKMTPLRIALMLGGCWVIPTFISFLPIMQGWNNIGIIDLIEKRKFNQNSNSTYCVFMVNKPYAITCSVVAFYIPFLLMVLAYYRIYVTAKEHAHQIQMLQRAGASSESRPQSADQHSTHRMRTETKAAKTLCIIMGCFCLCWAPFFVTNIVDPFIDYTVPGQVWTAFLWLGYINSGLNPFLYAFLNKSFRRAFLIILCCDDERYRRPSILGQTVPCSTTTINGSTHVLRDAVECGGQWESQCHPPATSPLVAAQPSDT
Kind of test: Test Example 3: Human 5-HT4 receptor binding assay, membranes of CHO-K1 cells stably expressing 5-HT4b receptors (Table 99). Conditions: mean value of each group. As to the method:
To an assay tube were added 0.1 nM [^3H]-GR113808 {chemical name: [1-[2-(methylsulfonylamino) ethyl]-4-piperidinyl]methyl 1-methylindole-3-carboxylate}, receptor membrane preparations, and Hepes buffer (50 mM, pH 7.4, 4° C., 1 ml) containing test compounds or 30 μM serotonin; and the mixture was incubated at 37° C. for 30 minutes. On quenching the reaction, the mixture was rapidly filtered on whatman GF/B filter, which was presoaked in 0.1% polyethyleneimine for 1 hour, by using Brandel cell Harvester, and washed with ice-cooled 50 mM Tris-HCl (pH 7.7, 4 ml) three times. To the filter after filtration was added a liquid scintillator (Ecoscint), and then a radioactivity was determined by a liquid scintillation counter.
50% Inhibition concentrations (IC50) were determined from inhibition rates of test compounds to specific bindings which were obtained by subtracting nonspecific bindings from total binding amounts of [^3H]-GR113808.
Human 5-HT4 receptor membrane preparations were prepared from CHO-K^1 cells which stably express 5-HT4b receptors, and human 5-HT4 receptor binding assay was carried out in a similar manner as in the guinea pig 5-HT4 receptor binding assay. The following tables show results of serotonin 4 (5-HT4) receptor binding assay. In the following tables, the compounds used in the test are shown in numbers which correspond to the Example numbers above where the preparations of the compounds are described.
For orientation: pIC50 means the negative decadic logarithm of the IC50, by convention in mol/L. The low end stands for a large IC50, the high end for a small IC50. In turn, `CC(C)c1nn(-c2noc([C@H]3CC[C@H](NCC4CCCO4)CC3)n2)c2c(F)cccc12` (relative stereo) [Example 620, trans-4-{3-[7-fluoro-3-(propan-2-yl)-1H-indazol-1-yl]-1,2,4-oxadiazol-5-yl}-N-(tetrahydrofuran-2-ylmethyl)cyclohexanamine] gave a pIC50 of more than 7.70.

On to `CCOC(=O)N1CCC(N2CCC(c3nc(-n4nc(C(C)C)c5cccc(F)c54)no3)CC2)C(OC)C1` (centres unmarked) [Example 556, ethyl 4-{3-[7-fluoro-3-(propan-2-yl)-1H-indazol-1-yl]-1,2,4-oxadiazol-5-yl}-3′-methoxy-1,4′-bipiperidine-1′-carboxylate], for which the pIC50 is 7.28.

Regarding `CC(C)c1nn(-c2noc(C3CCN(C(C)(C)C(=O)OC(C)(C)C)CC3)n2)c2c(F)cccc12` [Example 400, tert-butyl 2-(4-{3-[7-fluoro-3-(propan-2-yl)-1H-indazol-1-yl]-1,2,4-oxadiazol-5-yl}piperidin-1-yl)-2-methylpropanoate], the pIC50 is 6.65.

In the case of `CC(C)c1nn(-c2noc(C3CC(NC4COC4)C3)n2)c2c(F)cccc12` (centres unmarked) [Example 606, N-(3-{3-[7-fluoro-3-(propan-2-yl)-1H-indazol-1-yl]-1,2,4-oxadiazol-5-yl}cyclobutyl)oxetan-3-amine], the pIC50 is 7.06.

In the case of `CC(C)c1nn(-c2noc(C3CC(NCCC4CCOCC4)C3)n2)c2c(F)cccc12` (centres unmarked) [Example 603, 3-{3-[7-fluoro-3-(propan-2-yl)-1H-indazol-1-yl]-1,2,4-oxadiazol-5-yl}-N-[2-(tetrahydro-2H-pyran-4-yl)ethyl]cyclobutanamine], the negative logarithm of the IC50 (pIC50) is 7.54.

With `CC(C)c1nn(-c2noc([C@H]3C[C@H](NCCC4CCCCO4)C3)n2)c2c(F)cccc12` (relative stereo) [Example 598, trans-3-{3-[7-fluoro-3-(propan-2-yl)-1H-indazol-1-yl]-1,2,4-oxadiazol-5-yl}-N-[2-(tetrahydro-2H-pyran-2-yl)ethyl]cyclobutanamine], the negative logarithm of the IC50 (pIC50) was more than 7.70.

In turn, `CC(C)c1nn(-c2noc(C3CCN(C4CCS(=O)(=O)CC4)CC3)n2)c2c(F)cccc12` [Example 444, 1-{5-[1-(1,1-dioxidotetrahydro-2H-thiopyran-4-yl)piperidin-4-yl]-1,2,4-oxadiazol-3-yl}-7-fluoro-3-(propan-2-yl)-1H-indazole] had a pIC50 of 7.01.

In turn, `CC(C)c1nn(-c2noc(C3CC(NCC4CCCOC4)C3)n2)c2c(F)cccc12` (centres unmarked) [Example 601, 3-{3-[7-fluoro-3-(propan-2-yl)-1H-indazol-1-yl]-1,2,4-oxadiazol-5-yl}-N-{tetrahydro-2H-pyran-3-ylmethyl)cyclobutanamine] had a pIC50 of more than 7.70.

`CC(C)c1nn(-c2noc([C@H]3C[C@@H](NCCC4CCCCO4)C3)n2)c2c(F)cccc12` (relative stereo) [Example 597, cis-3-{3-[7-fluoro-3-(propan-2-yl)-1H-indazol-1-yl]-1,2,4-oxadiazol-5-yl}-N-[2-(tetrahydro-2H-pyran-2-yl)ethyl]cyclobutanamine] had a pIC50 of 7.57.

With `CC(C)c1nn(-c2noc(C3CCN(C(C)(C)C(=O)O)CC3)n2)c2c(F)cccc12` [Example 401, 2-(4-{3-[7-fluoro-3-(propan-2-yl)-1H-indazol-1-yl]-1,2,4-oxadiazol-5-yl}piperidin-1-yl)-2-methylpropanoic acid hydrochloride], the pIC50 was 6.53.

`COCCNC1CCC(c2nc(-n3nc(C(C)C)c4cccc(F)c43)no2)CC1` (centres unmarked) [Example 621, 4-{3-[7-fluoro-3-(propan-2-yl)-1H-indazol-1-yl]-1,2,4-oxadiazol-5-yl}-N-(2-methoxyethyl)cyclohexanamine] showed a pIC50 of 7.16.

`CC(C)Cc1nn(-c2noc(C3CCN(C4CCN(C(=O)CO)CC4)CC3)n2)c2c(F)cccc12` [Example 526, 1-(4-{3-[7-fluoro-3-(2-methylpropyl)-1H-indazol-1-yl]-1,2,4-oxadiazol-5-yl}-1,4′-bipiperidin-1′-yl)-2-hydroxyethanone] gave a pIC50 of 7.60.

Compound `CC(C)c1nn(-c2noc(C3CC(NC4CCCOC4)C3)n2)c2c(F)cccc12` (centres unmarked) [Example 600, N-(3-{3-[7-fluoro-3-(propan-2-yl)-1H-indazol-1-yl]-l,2,4-oxadiazol-5-yl}cyclobutyl)tetrahydro-2H-pyran-3-amine] gave a pIC50 of more than 7.70.

Consider `COCCN(C1CCOCC1)[C@H]1C[C@H](c2nc(-n3nc(C(C)C)c4cccc(F)c43)no2)C1` [Example 615, N-(trans-3-{3-[7-fluoro-3-(propan-2-yl)-1H-indazol-1-yl]-1,2,4-oxadiazol-5-yl}cyclobutyl)-N-(2-methoxyethyl)tetrahydro-2H-pyran-4-amine], for which the pIC50 is 7.56.

`CC(C)c1nn(-c2noc(C3CCN(CCc4cccnc4)CC3)n2)c2c(F)cccc12` [Example 399, 7-fluoro-3-(propan-2-yl)-1-(5-{1-[2-(pyridin-3-yl)ethyl]piperidin-4-yl}-1,2,4-oxadiazol-3-yl)-1H-indazole] gave a pIC50 of 7.69.

In turn, `CC(=O)N1CC[C@@H](NC2CC(c3nc(-n4nc(C(C)C)c5cccc(F)c54)no3)C2)C1` (stereo partly drawn) [Example 592, 1-{(3R)-3-[(3-{3-[7-fluoro-3-(propan-2-yl)-1H-indazol-1-yl]-1,2,4-oxadiazol-5-yl}cyclobutyl)amino]pyrrolidin-1-yl}ethanone] gave a negative-log IC50 (pIC50) of more than 7.70.

For the compound `Cc1cccc2c1c(C(C)C)nn2-c1noc(C2CCN(C3CCOCC3)CC2)n1` [Example 424, 4-methyl-3-(propan-2-yl)-1-{5-[1-(tetrahydro-2H-pyran-4-yl)piperidin-4-yl]-1,2,4-oxadiazol-3-yl}-1H-indazole], the pIC50 was 7.26.

`CC(C)c1nn(-c2noc(C3CC(NC4CCOC4)C3)n2)c2c(F)cccc12` (centres unmarked) [Example 607, N-(3-{3-[7-fluoro-3-(propan-2-yl)-1H-indazol-1-yl]-1,2,4-oxadiazol-5-yl)cyclobutyl)tetrahydrofuran-3-amine] showed a pIC50 of more than 7.70.

`COc1nn(-c2noc(C3CCN(C4CCN(C(C)=O)CC4)CC3)n2)c2c(F)cccc12` [Example 624, 1-{4-[3-(7-fluoro-3-methoxy-1H-indazol-1-yl)-1,2,4-oxadiazol-5-yl]-1,4′-bipiperidin-1′-yl}ethanone] gave a pIC50 of more than 7.70.

With `CC(C)c1nn(-c2noc(C3CC(NCCC4CCOC4)C3)n2)c2c(F)cccc12` (centres unmarked) [Example 599, 3-{3-[7-fluoro-3-(propan-2-yl)-1H-indazol-1-yl]-1,2,4-oxadiazol-5-yl}-N-[2-(tetrahydrofuran-3-yl)ethyl]cyclobutanamine], the pIC50 was more than 7.70.

The compound `CC(C)c1nn(-c2noc(C3CC(NCC4CCOC4)C3)n2)c2c(F)cccc12` (centres unmarked) [Example 608, 3-{3-[7-fluoro-3-(propan-2-yl)-1H-indazol-1-yl]-1,2,4-oxadiazol-5-yl}-N-(tetrahydrofuran-3-ylmethyl)cyclobutanamine] had a pIC50 of more than 7.70.

Compound `COCCN(CC1CCOCC1)C1CC(c2nc(-n3nc(C(C)C)c4cccc(F)c43)no2)C1` (centres unmarked) [Example 613, 3-{3-[7-fluoro-3-(propan-2-yl)-1H-indazol-1-yl]-1,2,4-oxadiazol-5-yl}-N-(2-methoxyethyl)-N-{tetrahydro-2H-pyran-4-ylmethyl)cyclobutanamine] showed a pIC50 of more than 7.70.

On to `CC(=O)N1CCC(N2CC(Cc3nc(-n4nc(C(C)C)c5cccc(F)c54)no3)C2)CC1` [Example 416], for which the pIC50 was 7.56.

For `CC(C)c1nn(-c2noc(C3CC(NCC4CCCCO4)C3)n2)c2c(F)cccc12` (centres unmarked) [Example 602, 3-{3-[7-fluoro-3-(propan-2-yl)-1H-indazol-1-yl]-1,2,4-oxadiazol-5-yl}-N-(tetrahydro-2H-pyran-2-ylmethyl)cyclobutanamine], the pIC50 is more than 7.70.

`CC(=O)N1CCC(N2CCC(c3nc(-n4nc(C(C)C)c5cccc(F)c54)no3)CC2C)CC1` (centres unmarked) [Example 418, 1-(4-{3-[7-fluoro-3-(propan-2-yl)-1H-indazol-1-yl]-1,2,4-oxadiazol-5-yl}-2-methyl-1,4′-bipiperidin-1′-yl}ethanone]: the pIC50 was 6.35.

`CC(C)c1nn(-c2noc([C@H]3CC[C@@H](NC4CCCOC4)CC3)n2)c2c(F)cccc12` (relative stereo) [Example 623, N-(cis-4-{3-[7-fluoro-3-(propan-2-yl)-1H-indazol-1-yl]-1,2,4-oxadiazol-5-yl}cyclohexyl)tetrahydro-2H-pyran-3-amine]: the pIC50 was 6.98.

`CC(C)c1nn(-c2noc(C3CCN(C4C5CCCC4CN(C(=O)CO)C5)CC3)n2)c2c(F)cccc12` (stereo not drawn) [Example 535, 1-[(9-anti)-9-(4-{3-[7-fluoro-3-(propan-2-yl)-1H-indazol-1-yl]-1,2,4-oxadiazol-5-yl}piperidin-1-yl)-3-azabicyclo[3.3.1]non-3-yl]-2-hydroxyethanone] gave a pIC50 of 7.53.

`CC(=O)N1CCCC(N[C@H]2CC[C@@H](c3nc(-n4nc(C(C)C)c5cccc(F)c54)no3)CC2)C1` (relative stereo) [Example 622, 1-{3-[(cis-4-{3-[7-fluoro-3-(propan-2-yl)-1H-indazol-1-yl]-1,2,4-oxadiazol-5-yl}cyclohexyl)amino]piperidin-1-yl}ethanone] showed a negative logarithm of the IC50 (pIC50) of 6.91.

The compound `COCCCNC1CC(c2nc(-n3nc(C(C)C)c4cccc(F)c43)no2)C1` (centres unmarked) [Example 609, 3-{3-[7-fluoro-3-(propan-2-yl)-1H-indazol-1-yl]-1,2,4-oxadiazol-5-yl}-N-(3-methoxypropyl)cyclobutanamine] gave a pIC50 of more than 7.70.

The values above are taken from patent US20140057895A1, “INDAZOLE- AND PYRROLOPYRIDINE-DERIVATIVE AND PHARMACEUTICAL USE THEREOF” (priority 2011, published 2014).
